Data from US8895501B2, “Eye-drop vaccine containing copolymer 1 for therapeutic immunization” (Yeda Research and Development Co. Ltd., priority 2003, dated 2014).
Several values for one entry are separate records, joined by “and”; a condition that tells them apart may be missing. Identical values can stand only once.

What was measured:
[1] = test system: retinal ganglion cells (RGCs); assay: Acute transient high IOP model, IOP-induced RGC death; format: in vivo, Lewis rats
From the text: (§1) Inbred adult male Lewis and Sprague-Dawley (SPD) rats (8 weeks; average weight 300 g) were supplied by the Animal Breeding Center at The Weizmann Institute of Science (Rehovot, Israel). The rats were maintained in a light- and temperature-controlled room and were matched for age and weight before each experiment. All animals were handled according to the regulations formulated by IACUC ([…]).
The infusion bag was placed 1 meter above the rat's head, creating a closed loop circulation. High IOP was induced for exactly 1 hour after which the needle was removed from the eye and the hole was self-sealed.
(§2) Eyes from untreated rats were used as a control. RGCs were counted by an observer who was blinded to the identity of the retinas.
(§3) Cop-1 in PBS was given at different concentrations and at different time points after the primary insult subcutaneously. Topical administration of Cop-1 was done after immersing the substance in PBS at a concentration of 20 mg/ml. Since each drop was of 50 μl, we administered 1 drop every 5 minutes for a total of 5 drops in 25 minutes.

[2] = test system: retinal ganglion cells (RGCs); assay: Chronic high IOP model (laser-induced), IOP-induced RGC death; format: in vivo, rat; conditions: for % of death of RGCs: non-thymectomized rats; for % of death of RGCs / loss of RGCs (% death): treatment started immediately after IOP elevation (Cop-1 single injection, brimonidine daily), 3 weeks; for loss of RGCs (% death): thymectomized (T cell-deprived) rats
From the text: as §1
Blockage of aqueous outflow causes an increase in IOP, which results in RGC death (Bakalash et al., 2002; Schori et al., 2001; Jia et al., 2000a; Levkovitch-Verbin et al., 2002). […] Rats were deeply anesthetized by intramuscular injection of ketamine hydrochloride (50 mg/kg) and xylazine hydrochloride (0.5 mg/kg). A slit lamp emitting blue-green argon laser irradiation (Haag-Streit, Köniz, Switzerland) was used to treat the right eye of the anesthetized rat with 80 to 120 applications directed toward three of the four episcleral veins and toward 270° of the limbal plexus. The laser beam was applied with a power of 1 W for 0.2 seconds, producing a spot size of 100 μm at the episcleral veins and 50 μm at the limbal plexus. At a second laser session 1 week later, the same parameters were used, except that the spot size was 100 μm in all applications. Irradiation was directed toward all four episcleral veins and 360° of the limbal plexus (Schori et al. 2001).
as §2
Rats with either laser-induced increase in IOP or acute IOP elevation were immunized with Cop 1 (100 μg) (Teva Pharmaceutical Industries Ltd., Petach Tikva, Israel) emulsified in 2.5 mg/ml of CFA in a total volume of 100 μl (Kipnis et al., 2000). Each animal was vaccinated subcutaneously at the root of the tail.
as §3

| Compound | Average death rate of RGCs ([1]; 5 mg Cop-1 over 25 minutes immediately after 1 hour of elevated IOP, two weeks after IOP elevation, n=4) | RGC protection, eye drops applied to the eye contralateral to the elevated pressure ([1]; Cop-1 eye drops to contralateral side versus ipsilateral) | loss of RGCs ([1]; Cop-1 without adjuvant, 2 weeks after transient IOP elevation (1 hour)) [%] | % of RGC death ([2]; Cop-1 emulsified in CFA, day of first laser plus 2, 6 and 9 weeks later, retinas excised 12 weeks after first laser, n=5) [%] | % of RGC death ([2]; Cop-1 emulsified in CFA, immunized on day of first laser, retinas excised 3 weeks later, n=7) [%] | % of RGC death ([2]; adjuvant-free 500 μg, daily injections for 7 days starting on day 0, retinas excised 3 weeks later) [%] | % of RGC death ([2]; adjuvant-free 500 μg, single injection on day 7 after first laser, retinas excised 3 weeks later) [%] | % of RGC death ([2]; adjuvant-free, subcutaneous, 100 μg on first day of laser treatment) [%] | % of RGC death ([2]; adjuvant-free, subcutaneous, 250 μg on first day of laser treatment) [%] | % of RGC death ([2]; adjuvant-free, subcutaneous, 500 μg on first day of laser treatment) [%] | RGC protection 6 weeks after IOP was first elevated, comparison of regimens ([2]; adjuvant-free, two injections (day 0 and 3 weeks later) versus a single injection after 3 weeks) | number of RGCs ([2]; eye drops without adjuvant, 5 mg Cop-1, assessed 3 weeks after pressure elevation, p<10^-5) [RGCs] | % of death of RGCs [2] [%] | loss of RGCs (% death) [2] |
| --- | --- | --- | --- | --- | --- | --- | --- | --- | --- | --- | --- | --- | --- | --- |
| glatiramer acetate [Cop-1] | 31.12%±3.22 | same effect as when given ipsilaterally | 20 | 33.7±1.4 | 12.6±5 | 41.41±6 | 19.1±14.7 | 44±6 | 50.5±8 | 26.6±10 | more effective than a single injection after 3 weeks | 150 | 23.5±5.7 | 55±5.2% and 55% |
| Brc1c(NC2=NCCN2)ccc2nccnc12 [brimonidine] |  |  |  |  |  |  |  |  |  |  |  |  | 34.5±3.51 | 38±7% |
